Patent publication US7674819B2 (Warner-Lambert Company LLC, priority 2005, dated 2010)
Substitutions are numbered along the chain they refer to. pIC50: −log10 of the molar value. Where two headings read alike, the source gives them in different places.

What was measured:
hAR = target: T1, hAR (Homo sapiens, UniProt P10275); test: Competitive binding of 3H-DHT to baculovirus/Sf9 generated hAR extracts; details: one hour at 4° C., mean of multiple tests
T1 sequence (P10275 1-920): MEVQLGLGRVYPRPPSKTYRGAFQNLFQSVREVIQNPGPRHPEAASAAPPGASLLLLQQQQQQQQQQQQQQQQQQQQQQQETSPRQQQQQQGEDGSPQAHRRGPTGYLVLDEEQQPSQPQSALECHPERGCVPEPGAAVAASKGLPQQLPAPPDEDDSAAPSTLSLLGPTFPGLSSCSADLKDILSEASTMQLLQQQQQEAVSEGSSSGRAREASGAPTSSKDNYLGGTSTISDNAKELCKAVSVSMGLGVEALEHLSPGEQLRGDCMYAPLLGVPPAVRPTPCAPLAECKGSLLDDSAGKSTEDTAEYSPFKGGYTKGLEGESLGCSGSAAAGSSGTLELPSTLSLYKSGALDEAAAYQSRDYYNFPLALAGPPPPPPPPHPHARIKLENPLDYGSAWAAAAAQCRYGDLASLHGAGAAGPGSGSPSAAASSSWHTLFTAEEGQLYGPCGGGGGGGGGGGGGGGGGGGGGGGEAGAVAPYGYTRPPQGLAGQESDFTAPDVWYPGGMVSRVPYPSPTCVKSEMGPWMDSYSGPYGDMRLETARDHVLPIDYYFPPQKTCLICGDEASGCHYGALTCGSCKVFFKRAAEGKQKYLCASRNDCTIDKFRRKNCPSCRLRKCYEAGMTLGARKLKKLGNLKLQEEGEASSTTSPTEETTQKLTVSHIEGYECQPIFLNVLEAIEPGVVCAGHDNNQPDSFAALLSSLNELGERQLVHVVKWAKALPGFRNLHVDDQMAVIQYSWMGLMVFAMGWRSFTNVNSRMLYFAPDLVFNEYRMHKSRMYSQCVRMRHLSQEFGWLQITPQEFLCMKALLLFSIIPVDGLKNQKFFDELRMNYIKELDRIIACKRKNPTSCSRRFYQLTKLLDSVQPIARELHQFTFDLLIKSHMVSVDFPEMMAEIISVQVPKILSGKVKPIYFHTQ
In short: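 Baculovirus/Sf9-expressed hAR extract incubated with test compound, hydroxylapatite and 1 nM 3H-DHT tracer for 1 h at 4° C, then washed free of unbound tracer. Affinity given as concentration inhibiting half of maximal 3H-DHT binding.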

androgen receptor = target: T2, androgen receptor (Homo sapiens, UniProt P10275); test: AR Antagonist Cell Assay (MDA-MB453-MMTV clone 54-19, luciferase reporter); assay type: cell-based; details: inhibition of induction by DHT (final concentration at 100 μM), 17 hr, compound 0.32-1000 nM, mean of multiple tests
T2 sequence (P10275 1-920 Q868H): T1 sequence (P10275 1-920) with Q868H
In short: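 MDA-MB453 breast tumour cells stably carrying an ARE-containing MMTV promoter driving firefly luciferase, plated overnight at 37° C in charcoal-treated serum medium. DHT added (final […]) and incubated 17 hr at 37° C. Luminescence read after adding luciferase buffer; values are means of multiple tests.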

spinal BMD = details: after 7 years of treatment; cited from earlier work
[1] = IC50, concentration at which one half of maximum binding of 1 nM 3H-DHT to hAR is inhibited
[2] = concentration at which one half of maximum binding of 1 nM 3H-DHT to hAR is inhibited, read-out: IC50

| SMILES | pIC50 (hAR; [1]) | pIC50 (hAR; [2]) | pIC50 (androgen receptor; read-out: IC50) | also measured |
| --- | --- | --- | --- | --- |
| C[C@@H](c1ccc(F)cc1)N1CC(C)(C)[C@@H](Oc2ccc(C#N)c(C(F)(F)F)c2)C1=O (mixture of isomers) [Example 71, (±)-4-{1-[1-(4-Fluoro-phenyl)-ethyl]-4,4-dimethyl-2-oxo-pyrrolidin-3-yloxy}-2-trifluoromethyl-benzonitrile] |  |  |  | melting point: 114 to 115 °C |
| CSc1ccc(CN2CC(C)(C)C(Oc3ccc(C#N)c(C(F)(F)F)c3)C2=O)cc1 (racemic) [Example 22, (±)-4-[4,4-Dimethyl-1-(4-methylsulfanyl-benzyl)-2-oxo-pyrrolidin-3-yloxy]-2-trifluoromethyl-benzonitrile] | 7.40 |  |  | melting point: 44.1 to 44.8 °C; pIC50 (androgen receptor): 7.00 |
| C[C@@H](c1ccc(F)cc1)N1CC(C)(C)[C@@H](Oc2ccc(C#N)c(C(F)(F)F)c2)C1=O (racemic) [Example 70, (±)-4-{1-[1-(4-Fluoro-phenyl)-ethyl]-4,4-dimethyl-2-oxo-pyrrolidin-3-yloxy}-2-trifluoromethyl-benzonitrile] | 7.28 |  |  | melting point: 82 to 83 °C; pIC50 (androgen receptor): 7.07 |
| CC(c1cccc(O)c1)N1CC(C)(C)C(Oc2ccc(C#N)c(C(F)(F)F)c2)C1=O (single isomer, unassigned; (+)) [Example 24, (+)-4-{1-[1-(3-Hydroxy-phenyl)-ethyl]-4,4-dimethyl-2-oxo-pyrrolidin-3-yloxy}-2-trifluoromethyl-benzonitrile] | 8.00 |  |  | melting point: 185.1 to 185.8 °C; pIC50 (androgen receptor): 7.48 |
| CC1(C)CN(Cc2nnc(-c3cccc(F)c3)o2)C(=O)C1Oc1ccc(C#N)c(C(F)(F)F)c1 (centres unmarked) [Example 115, 4-{1-[5-(3-Fluoro-phenyl)-[1,3,4]oxadiazol-2-ylmethyl]-4,4-dimethyl-2-oxo-pyrrolidin-3-yloxy}-2-trifluoromethyl-benzonitrile] |  | 6.85 | 6.38 |  |
| CC1(C)CN(Cc2nnc(-c3ccc(F)cc3)o2)C(=O)C1Oc1ccc(C#N)c(C(F)(F)F)c1 (centres unmarked) [Example 116, 4-{1-[5-(4-Fluoro-phenyl)-[1,3,4]oxadiazol-2-ylmethyl]-4,4-dimethyl-2-oxo-pyrrolidin-3-yloxy}-2-trifluoromethyl-benzonitrile] |  | 6.69 | 6.43 |  |
| Cc1ccc(-c2nnc(CN3CC(C)(C)C(Oc4ccc(C#N)c(C(F)(F)F)c4)C3=O)o2)s1 (centres unmarked) [Example 117, 4-{4,4-Dimethyl-1-[5-(5-methyl-thiophen-2-yl)-[1,3,4]oxadiazol-2-ylmethyl]-2-oxo-pyrrolidin-3-yloxy}-2-trifluoromethyl-benzonitrile] |  | 6.59 | 6.93 |  |
| COc1cccc(-c2nnc(CN3CC(C)(C)C(Oc4ccc(C#N)c(C(F)(F)F)c4)C3=O)o2)c1 (centres unmarked) [Example 118, 4-{1-[5-(3-Methoxy-phenyl)-[1,3,4]oxadiazol-2-ylmethyl]-4,4-dimethyl-2-oxo-pyrrolidin-3-yloxy}-2-trifluoromethyl-benzonitrile] |  | 6.77 | 6.42 |  |
| COc1ccc(-c2nnc(CN3CC(C)(C)C(Oc4ccc(C#N)c(C(F)(F)F)c4)C3=O)o2)cc1 (centres unmarked) [Example 119, 4-{1-[5-(4-Methoxy-phenyl)-[1,3,4]oxadiazol-2-ylmethyl]-4,4-dimethyl-2-oxo-pyrrolidin-3-yloxy}-2-trifluoromethyl-benzonitrile] | 7.10 |  | 6.70 |  |
| COc1ccccc1-c1nnc(CN2CC(C)(C)C(Oc3ccc(C#N)c(C(F)(F)F)c3)C2=O)o1 (centres unmarked) [Example 121, 4-{1-[5-(2-Methoxy-phenyl)-[1,3,4]oxadiazol-2-ylmethyl]-4,4-dimethyl-2-oxo-pyrrolidin-3-yloxy}-2-trifluoromethyl-benzonitrile] |  | 6.88 | 6.78 |  |
| CC1(C)CN(Cc2nnc(-c3ccc(O)cc3O)o2)C(=O)C1Oc1ccc(C#N)c(C(F)(F)F)c1 (centres unmarked) [Example 123, 4-{1-[5-(2,4-Dihydroxy-phenyl)-[1,3,4]oxadiazol-2-ylmethyl]-4,4-dimethyl-2-oxo-pyrrolidin-3-yloxy}-2-trifluoromethyl-benzonitrile] | 7.21 |  | 6.75 |  |
| CC1(C)CN(Cc2nnc(-c3ccccc3Cl)o2)C(=O)C1Oc1ccc(C#N)c(C(F)(F)F)c1 (centres unmarked) [Example 127, 4-{1-(5-(2-Chloro-phenyl)-[1,3,4]oxadiazol-2-ylmethyl]-4,4-dimethyl-2-oxo-pyrrolidin-3-yloxy}-2-trifluoromethyl-benzonitrile] |  | 6.70 | < 6.00 |  |
| CC(c1nnc(-c2ccccc2O)o1)N1CC(C)(C)C(Oc2ccc(C#N)c(C(F)(F)F)c2)C1=O (centres unmarked) [Example 130, 4-(1-{1-[5-(2-hydroxy-phenyl)-[1,3,4]oxadiazol-2-yl]-ethyl}-4,4-dimethyl-2-oxo-pyrrolidin-3-yloxy)-2-trifluoromethyl-benzonitrile] | 7.07 |  | 6.70 |  |
| NCCCC(O)(P(=O)(O)O)P(=O)(O)O [alendronate] |  |  |  | increase in spinal BMD (spinal BMD): ≤ 11% |
